For this test, the system named is Geobacillus stearothermophilus spores. Description: Steam resistance of biological indicators in the BIER vessel (kill kinetics, log population versus time). Format: cell-based. As for the experimental part:
In the following examples, the test organism is prepared using a standard lot of Geobacillus stearothermophilus spores suspended in an aqueous carbohydrate solution. In these examples, xylose and dextrose are used as the carbohydrates. Comparative examples are also provided wherein the carbohydrate is not used. In each case, the aqueous suspension is placed in a vial and allowed to dry. The resulting biological indicators are resistance tested. The tests show an unexpected decrease in resistance when the biological indicators are derived from a carbohydrate solution as compared to when no carbohydrate is used.
In these examples, the biological indicators are tested for resistance to steam sterilization using the biological indicator evaluation resistor (BIER) vessel depicted in FIG. 5A. Referring to FIG. 5A, BIER vessel 300 includes chamber 310, door 320, and interior shelf 330 for placement of the biological indicators. Steam, heat and pressure enters chamber 310 as indicated by arrow 340. Vent 350 is provided for the rapid release of steam, heat and pressure. Operation is controlled by a computerized processor, sensors, and valves designed to introduce rapid changes to the environment within the chamber 310.
Referring to FIG. 5B, the process cycle used in the BIER vessel includes six phases, these phases being numbered as phases 1-6 in FIG. 5B. These phases can be described as follows:
The term “log population” refers to the log of the number of colony-forming units (cfu) of viable spores in the test sample. For example, a log population of 6 refers to 10^6 (or 1,000,000) viable colony-forming units of spores in the test sample.

The text below walks through data of patent publication US20170211035A1, “BIOLOGICAL INDICATORS” (American Sterilizer Company, priority 2016, published 2017).

As to `O=C[C@H](O)[C@@H](O)[C@H](O)CO` [xylose], the “resistance (time)” value (steam at 121° C., spores dried from suspension in 0.5M carbohydrate solution) is reported as “approximately 4 minutes” and the “resistance (time)” value (steam at 132° C., spores dried from suspension in xylose solution as in Example 1 (1.67 M)) is “approximately 1.5 minutes”. The “time for a 6 log reduction (kill kinetics)” value (steam at 121° C., spores dried from suspension in 1.67 M xylose solution) is listed as “approximately 5 minutes”.
